Source: ChEMBL document CHEMBL1201862, “PubChem BioAssay data set” (2004)
The source made the active and inactive calls.

Columns and labels:
[1] = molecular target: Casein kinase II subunit alpha (Homo sapiens, UniProt P68400); type: functional
[2] = molecular target: Fibroblast growth factor receptor 3 (Homo sapiens, UniProt P22607); type: functional
[3] = molecular target: LIM domain kinase 1 (Homo sapiens, UniProt P53667); assay: Navigating the Kinome. Panel member name: LIMK1; type: functional
[4] = molecular target: Epidermal growth factor receptor (Homo sapiens, UniProt P00533)
[5] = molecular target: Serine/threonine-protein kinase Nek2 (Homo sapiens, UniProt P51955); type: functional
Sequence of Serine/threonine-protein kinase Nek2 (P51955 whole entry): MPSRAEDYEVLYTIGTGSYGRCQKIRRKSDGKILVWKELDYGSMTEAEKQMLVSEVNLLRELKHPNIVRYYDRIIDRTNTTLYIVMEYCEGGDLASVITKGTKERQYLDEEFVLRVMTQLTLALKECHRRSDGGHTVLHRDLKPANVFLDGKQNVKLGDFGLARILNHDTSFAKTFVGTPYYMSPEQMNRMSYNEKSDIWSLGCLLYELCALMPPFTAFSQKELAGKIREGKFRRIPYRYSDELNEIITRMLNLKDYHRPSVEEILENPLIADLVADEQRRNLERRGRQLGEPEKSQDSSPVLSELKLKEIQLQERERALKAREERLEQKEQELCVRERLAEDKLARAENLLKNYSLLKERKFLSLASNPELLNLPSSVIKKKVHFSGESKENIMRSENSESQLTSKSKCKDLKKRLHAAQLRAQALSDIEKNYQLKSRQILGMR

[6] = molecular target: Tyrosine-protein kinase ITK/TSK (Homo sapiens, UniProt Q08881); type: functional;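 note: affinity for ITK measured as one member of a broad kinase panel profiling binding across the kinome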
[7] = molecular target: Tyrosine-protein kinase Lyn (Homo sapiens, UniProt P07948); type: functional;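 note: lyn as one member of a kinase panel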
[8] = molecular target: Serine/threonine-protein kinase PAK 1 (Homo sapiens, UniProt Q13153); type: functional
Sequence of Serine/threonine-protein kinase PAK 1 (Q13153 whole entry): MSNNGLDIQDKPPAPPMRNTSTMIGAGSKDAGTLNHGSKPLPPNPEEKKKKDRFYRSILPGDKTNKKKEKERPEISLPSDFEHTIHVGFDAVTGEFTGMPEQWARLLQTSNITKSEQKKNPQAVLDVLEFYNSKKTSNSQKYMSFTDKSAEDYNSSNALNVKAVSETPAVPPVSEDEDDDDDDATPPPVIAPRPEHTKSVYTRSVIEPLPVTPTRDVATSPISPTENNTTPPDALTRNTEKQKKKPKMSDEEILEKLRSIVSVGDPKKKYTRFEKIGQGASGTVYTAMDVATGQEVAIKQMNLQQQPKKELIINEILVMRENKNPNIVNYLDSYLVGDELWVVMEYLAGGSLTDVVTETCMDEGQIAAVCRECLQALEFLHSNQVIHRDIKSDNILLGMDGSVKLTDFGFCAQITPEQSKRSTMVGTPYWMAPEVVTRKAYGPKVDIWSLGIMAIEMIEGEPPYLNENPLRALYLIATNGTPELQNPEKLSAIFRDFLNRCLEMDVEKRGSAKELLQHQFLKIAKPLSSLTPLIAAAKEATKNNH

[9] = molecular target: 3-phosphoinositide-dependent protein kinase 1 (Homo sapiens, UniProt O15530); type: functional;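 note: value comes from the Navigating the Kinome panel, PDPK1 member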
Sequence of 3-phosphoinositide-dependent protein kinase 1 (O15530 whole entry): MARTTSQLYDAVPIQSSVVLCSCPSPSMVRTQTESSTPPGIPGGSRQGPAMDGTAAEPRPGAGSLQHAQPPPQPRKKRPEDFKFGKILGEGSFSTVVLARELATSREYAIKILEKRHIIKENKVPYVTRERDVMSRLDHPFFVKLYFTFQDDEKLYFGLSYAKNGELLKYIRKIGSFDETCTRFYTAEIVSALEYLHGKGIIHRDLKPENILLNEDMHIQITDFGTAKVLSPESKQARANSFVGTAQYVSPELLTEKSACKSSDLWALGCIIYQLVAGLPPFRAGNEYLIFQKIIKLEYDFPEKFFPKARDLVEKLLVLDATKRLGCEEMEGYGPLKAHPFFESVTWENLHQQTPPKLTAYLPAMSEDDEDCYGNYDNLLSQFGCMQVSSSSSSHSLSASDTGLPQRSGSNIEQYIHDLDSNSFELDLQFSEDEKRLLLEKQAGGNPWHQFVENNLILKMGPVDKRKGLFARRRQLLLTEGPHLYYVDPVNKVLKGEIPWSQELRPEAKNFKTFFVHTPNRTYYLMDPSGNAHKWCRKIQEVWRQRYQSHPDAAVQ

[10] = molecular target: Ribosomal protein S6 kinase beta-1 (Homo sapiens, UniProt P23443); type: functional;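 note: measured as one member of a kinome-wide profiling panel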
[11] = molecular target: MAP/microtubule affinity-regulating kinase 3 (Homo sapiens, UniProt P27448); type: functional;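 note: MARK3 affinity measured as one member of a kinome panel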
[12] = molecular target: Proto-oncogene tyrosine-protein kinase Src (Homo sapiens, UniProt P12931); type: functional;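 note: SRC entry within a kinome-wide kinase profiling panel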
[13] = molecular target: Mitogen-activated protein kinase 13 (Homo sapiens, UniProt O15264); type: functional
[14] = molecular target: Rho-associated protein kinase 2 (Homo sapiens, UniProt O75116); type: functional
[15] = molecular target: Dual specificity mitogen-activated protein kinase kinase 1 (Homo sapiens, UniProt Q02750); assay: Navigating the Kinome. Panel member name: MAP2K1; type: functional
[16] = molecular target: Calcium/calmodulin-dependent protein kinase type II subunit delta (Homo sapiens, UniProt Q13557); type: functional
[17] = molecular target: Serine/threonine-protein kinase D3 (Homo sapiens, UniProt O94806); type: functional;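 note: determined within a kinase panel screen, with PRKCN as the panel member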
Sequence of Serine/threonine-protein kinase D3 (O94806 whole entry): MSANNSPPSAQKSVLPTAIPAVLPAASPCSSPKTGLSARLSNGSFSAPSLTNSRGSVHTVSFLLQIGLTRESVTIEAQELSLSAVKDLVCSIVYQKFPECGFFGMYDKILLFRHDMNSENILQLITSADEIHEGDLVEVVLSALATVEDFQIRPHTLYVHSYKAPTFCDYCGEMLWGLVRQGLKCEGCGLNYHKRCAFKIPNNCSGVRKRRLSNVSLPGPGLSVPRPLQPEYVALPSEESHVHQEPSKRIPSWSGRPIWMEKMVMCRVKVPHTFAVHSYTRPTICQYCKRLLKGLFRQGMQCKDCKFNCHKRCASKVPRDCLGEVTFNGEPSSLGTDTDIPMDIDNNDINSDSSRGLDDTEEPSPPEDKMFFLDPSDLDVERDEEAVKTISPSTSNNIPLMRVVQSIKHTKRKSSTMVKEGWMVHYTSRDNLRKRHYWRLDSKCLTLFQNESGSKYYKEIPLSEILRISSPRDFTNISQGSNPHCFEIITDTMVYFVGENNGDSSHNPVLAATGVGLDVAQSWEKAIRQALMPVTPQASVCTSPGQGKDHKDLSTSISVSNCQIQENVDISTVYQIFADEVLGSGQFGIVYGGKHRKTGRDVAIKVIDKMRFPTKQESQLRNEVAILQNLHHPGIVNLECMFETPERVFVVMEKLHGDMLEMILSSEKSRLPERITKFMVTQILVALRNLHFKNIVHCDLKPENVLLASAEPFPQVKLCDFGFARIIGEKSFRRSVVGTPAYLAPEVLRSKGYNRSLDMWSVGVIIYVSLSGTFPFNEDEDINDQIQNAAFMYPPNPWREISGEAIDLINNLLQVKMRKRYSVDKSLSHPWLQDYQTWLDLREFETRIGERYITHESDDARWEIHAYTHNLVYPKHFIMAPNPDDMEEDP

[18] = molecular target: Leukocyte tyrosine kinase receptor (Homo sapiens, UniProt P29376); assay: Navigating the Kinome. Panel member name: LTK; type: functional
[19] = molecular target: ALK tyrosine kinase receptor (Homo sapiens, UniProt Q9UM73); type: functional;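 note: ALK tested as one member of a kinase panel screen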
[20] = molecular target: Inhibitor of nuclear factor kappa-B kinase subunit epsilon (Homo sapiens, UniProt Q14164); assay: Navigating the Kinome. Panel member name: IKBKE; type: functional
[21] = molecular target: Cyclin-dependent kinase 7 (Homo sapiens, UniProt P50613); type: functional;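 note: value comes from a kinome-wide kinase profiling panel in which CDK7 is one member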
[22] = molecular target: Platelet-derived growth factor receptor beta (Homo sapiens, UniProt P09619); type: functional;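 note: value comes from a kinome panel, with PDGFRB tested as one panel member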
[23] = molecular target: Platelet-derived growth factor receptor alpha (Homo sapiens, UniProt P16234); assay: Navigating the Kinome. Panel member name: PDGFRA; type: functional
Sequence of Platelet-derived growth factor receptor alpha (P16234 whole entry): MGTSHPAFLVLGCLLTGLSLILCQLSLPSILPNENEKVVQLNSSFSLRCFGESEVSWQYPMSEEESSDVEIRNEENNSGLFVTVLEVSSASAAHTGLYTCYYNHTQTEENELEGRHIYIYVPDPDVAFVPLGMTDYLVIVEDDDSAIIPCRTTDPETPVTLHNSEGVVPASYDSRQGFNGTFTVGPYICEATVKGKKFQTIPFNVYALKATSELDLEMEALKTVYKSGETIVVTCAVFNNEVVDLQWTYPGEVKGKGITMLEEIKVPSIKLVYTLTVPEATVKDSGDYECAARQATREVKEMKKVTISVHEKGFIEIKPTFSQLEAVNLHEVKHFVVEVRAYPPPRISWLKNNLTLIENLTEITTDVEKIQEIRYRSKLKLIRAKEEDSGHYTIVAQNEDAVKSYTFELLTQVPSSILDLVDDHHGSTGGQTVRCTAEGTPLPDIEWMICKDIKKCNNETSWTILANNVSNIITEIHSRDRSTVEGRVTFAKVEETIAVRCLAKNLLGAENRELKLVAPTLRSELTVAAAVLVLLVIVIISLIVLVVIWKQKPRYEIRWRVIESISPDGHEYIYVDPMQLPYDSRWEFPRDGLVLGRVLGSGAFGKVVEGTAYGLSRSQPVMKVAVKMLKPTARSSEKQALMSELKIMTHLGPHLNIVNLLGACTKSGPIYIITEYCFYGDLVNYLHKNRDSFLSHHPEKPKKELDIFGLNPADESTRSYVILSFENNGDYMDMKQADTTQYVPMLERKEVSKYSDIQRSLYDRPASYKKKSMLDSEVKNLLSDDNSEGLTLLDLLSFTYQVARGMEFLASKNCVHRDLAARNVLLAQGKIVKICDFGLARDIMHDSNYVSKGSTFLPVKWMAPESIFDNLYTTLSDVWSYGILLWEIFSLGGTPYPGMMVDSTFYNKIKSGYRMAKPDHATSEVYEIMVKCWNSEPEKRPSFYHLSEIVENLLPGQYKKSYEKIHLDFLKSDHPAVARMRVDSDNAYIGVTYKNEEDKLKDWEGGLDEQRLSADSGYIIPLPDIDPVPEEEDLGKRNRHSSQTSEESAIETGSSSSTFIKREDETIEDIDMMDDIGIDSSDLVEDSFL

[24] = molecular target: Serine/threonine-protein kinase TBK1 (Homo sapiens, UniProt Q9UHD2); assay: Navigating the Kinome. Panel member name: TBK1; type: functional
[25] = molecular target: Leucine-rich repeat serine/threonine-protein kinase 2 (Homo sapiens, UniProt Q5S007); type: functional;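 note: value from a broad kinome-wide panel profiling study in which LRRK2 was one of the kinases tested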
[26] = molecular target: Misshapen-like kinase 1 (Homo sapiens, UniProt Q8N4C8); type: functional;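 note: kinome panel screen with MINK as the panel member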
[27] = molecular target: Homeodomain-interacting protein kinase 2 (Homo sapiens, UniProt Q9H2X6); type: functional;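 note: measured within a kinome-wide kinase profiling panel, HIPK2 being one panel member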
[28] = molecular target: Mitogen-activated protein kinase kinase kinase kinase 2 (Homo sapiens, UniProt Q12851); type: functional;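 note: measured as one member of a kinome-wide kinase panel, with MAP4K2 as the panel entry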
Sequence of Mitogen-activated protein kinase kinase kinase kinase 2 (Q12851 whole entry): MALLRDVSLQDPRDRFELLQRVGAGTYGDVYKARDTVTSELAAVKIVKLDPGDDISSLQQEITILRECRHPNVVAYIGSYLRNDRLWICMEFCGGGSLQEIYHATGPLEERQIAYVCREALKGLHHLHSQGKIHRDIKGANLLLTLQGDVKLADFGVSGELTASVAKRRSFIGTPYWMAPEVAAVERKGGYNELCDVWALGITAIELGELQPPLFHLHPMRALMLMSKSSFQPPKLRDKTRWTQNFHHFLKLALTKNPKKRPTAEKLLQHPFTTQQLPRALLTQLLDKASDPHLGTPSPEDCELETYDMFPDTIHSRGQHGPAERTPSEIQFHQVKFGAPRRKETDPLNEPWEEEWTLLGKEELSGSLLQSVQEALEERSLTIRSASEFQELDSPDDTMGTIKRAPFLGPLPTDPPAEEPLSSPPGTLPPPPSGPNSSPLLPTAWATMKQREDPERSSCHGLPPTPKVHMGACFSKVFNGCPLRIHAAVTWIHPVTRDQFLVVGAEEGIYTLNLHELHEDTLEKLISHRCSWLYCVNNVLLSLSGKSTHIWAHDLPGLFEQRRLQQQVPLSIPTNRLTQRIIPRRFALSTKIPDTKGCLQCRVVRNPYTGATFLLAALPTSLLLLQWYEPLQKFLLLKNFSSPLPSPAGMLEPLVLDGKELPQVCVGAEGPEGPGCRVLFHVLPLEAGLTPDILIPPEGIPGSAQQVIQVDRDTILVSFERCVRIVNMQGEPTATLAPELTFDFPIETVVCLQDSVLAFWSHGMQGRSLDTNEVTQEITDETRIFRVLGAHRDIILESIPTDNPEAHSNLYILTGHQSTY

[29] = molecular target: Tyrosine-protein kinase BTK (Homo sapiens, UniProt Q06187); type: functional
[30] = molecular target: Dual specificity tyrosine-phosphorylation-regulated kinase 1B (Homo sapiens, UniProt Q9Y463); assay: Navigating the Kinome. Panel member name: DYRK1B; type: functional

Sequence of Casein kinase II subunit alpha (P68400 whole entry): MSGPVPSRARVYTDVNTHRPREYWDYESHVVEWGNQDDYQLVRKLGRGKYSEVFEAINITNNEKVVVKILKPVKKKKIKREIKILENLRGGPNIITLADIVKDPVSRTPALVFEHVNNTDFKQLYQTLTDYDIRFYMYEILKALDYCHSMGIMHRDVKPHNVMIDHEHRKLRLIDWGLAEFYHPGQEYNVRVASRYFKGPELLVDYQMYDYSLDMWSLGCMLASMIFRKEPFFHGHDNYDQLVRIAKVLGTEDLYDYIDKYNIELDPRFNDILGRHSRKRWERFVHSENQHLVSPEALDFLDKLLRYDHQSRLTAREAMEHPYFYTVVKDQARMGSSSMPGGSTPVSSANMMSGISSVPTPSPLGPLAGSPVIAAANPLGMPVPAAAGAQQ

Structure (SMILES): NC(COc1cncc(-c2cc3ccncc3s2)c1)Cc1c[nH]c2ccccc12 (stereo not given)
- Ki [1]: 398 nM (active)
- Ki [2]: > 2000 nM (inactive)
- Ki [3]: 794 nM (active)
- Ki [4]: 1580 nM (active)
- Ki [5]: > 10000 nM (inactive)
- Ki [6]: > 1580 nM (inactive)
- Ki [7]: > 1580 nM (inactive)
- Ki [8]: 794 nM (active)
- Ki [9]: 251 nM (active)
- Ki [10]: 6.31 nM (active)
- Ki [11]: 398 nM (active)
- Ki [12]: > 2510 nM (inactive)
- Ki [13]: 7940 nM (active)
- Ki [14]: 10 nM (active)

Structure (SMILES): CN(C)C1CCC(Nc2nc(Cl)cc(-c3c[nH]c4ncccc34)n2)CC1 (stereo not given)
- Ki [15]: 200 nM (active)
- Ki [16]: 1260 nM (active)
- Ki [17]: 15.8 nM (active)
- Ki [18]: 501 nM (active)
- Ki [19]: 1580 nM (active)
- Ki [20]: 2510 nM (active)
- Ki [21]: 100 nM (active)
- Ki [22]: 1000 nM (active)
- Ki [23]: > 2510 nM (inactive)
- Ki [24]: 2000 nM (active)
- Ki [25]: 15.8 nM (active)
- Ki [26]: 31.6 nM (active)
- Ki [27]: 63.1 nM (active)
- Ki [28]: 316 nM (active)
- Ki [29]: > 6310 nM (inactive)
- Ki [30]: 25.1 nM (active)
